Reference: patent publication US10016424B2, “Method and pharmaceutical composition for use in the treatment of epilepsy” (INSERM (Institut National de la Sante et de la Recherche …, priority 2013, dated 2018)

Legend:
[1] = system: pilocarpine-status epilepticus model of chronic TLE; test: Ictal discharges, telemetric intrahippocampal EEG in freely-moving pilocarpine-treated mice; type: in vivo, mouse
Experimental: All experiments were approved by the Institut National de la Santé et de la Recherche Médicale animal care and use committee of May 29, 2001 (2001-464) and the European community council directive of Nov. 24, 1986 (86/609/EEC). Mice (FVB/N background) had access to food and water ad libitum and were housed under a 12 h light/dark cycle at 22-24° C. Male GluK2−/− and WT mice (P60-80) were given scopolamine (1 mg/kg) subcutaneously (s.c.) 15 minutes prior to s.c. administration of pilocarpine (200-600 mg/kg). A ramp protocol was used whereby animals were given an initial dose of 200 mg/kg followed by half-doses every 30 minutes until seizures appeared. Both WT and GluK2−/− mice typically experienced at least two seizures prior to entering status epilepticus (SE). Diazepam (10 mg/kg) was administered 45 minutes after onset of SE.
Naïve wildtype (WT) and pilocarpine-treated WT or GluK2−/− mice (5-6 months old) were anaesthetized with xylazine 13 mg/kg/ketamine 66 mg/kg and placed in a stereotaxic frame (supplemental dosing was administered as required). Body temperature was maintained using a heating pad. […] After a 4 day recovery, EEG (amplified (1000×), filtered at 0.16-97 Hz pass, acquired at 500 Hz) was monitored using a telemetric system (Data Sciences International, St. Paul, Minn.) for 4 days, 24 h per day. […]

GluK2/GluK5 receptors = GluK2/GluK5 receptors (Homo sapiens, UniProt Q13002+Q16478); conditions: cited from earlier work
[2] = target: homomeric GluK2 receptors (Homo sapiens, UniProt Q13002); conditions: cited from earlier work
AMPA receptor = conditions: cited from earlier work

homomeric GluK2 receptors, sequence (Q13002 32-908): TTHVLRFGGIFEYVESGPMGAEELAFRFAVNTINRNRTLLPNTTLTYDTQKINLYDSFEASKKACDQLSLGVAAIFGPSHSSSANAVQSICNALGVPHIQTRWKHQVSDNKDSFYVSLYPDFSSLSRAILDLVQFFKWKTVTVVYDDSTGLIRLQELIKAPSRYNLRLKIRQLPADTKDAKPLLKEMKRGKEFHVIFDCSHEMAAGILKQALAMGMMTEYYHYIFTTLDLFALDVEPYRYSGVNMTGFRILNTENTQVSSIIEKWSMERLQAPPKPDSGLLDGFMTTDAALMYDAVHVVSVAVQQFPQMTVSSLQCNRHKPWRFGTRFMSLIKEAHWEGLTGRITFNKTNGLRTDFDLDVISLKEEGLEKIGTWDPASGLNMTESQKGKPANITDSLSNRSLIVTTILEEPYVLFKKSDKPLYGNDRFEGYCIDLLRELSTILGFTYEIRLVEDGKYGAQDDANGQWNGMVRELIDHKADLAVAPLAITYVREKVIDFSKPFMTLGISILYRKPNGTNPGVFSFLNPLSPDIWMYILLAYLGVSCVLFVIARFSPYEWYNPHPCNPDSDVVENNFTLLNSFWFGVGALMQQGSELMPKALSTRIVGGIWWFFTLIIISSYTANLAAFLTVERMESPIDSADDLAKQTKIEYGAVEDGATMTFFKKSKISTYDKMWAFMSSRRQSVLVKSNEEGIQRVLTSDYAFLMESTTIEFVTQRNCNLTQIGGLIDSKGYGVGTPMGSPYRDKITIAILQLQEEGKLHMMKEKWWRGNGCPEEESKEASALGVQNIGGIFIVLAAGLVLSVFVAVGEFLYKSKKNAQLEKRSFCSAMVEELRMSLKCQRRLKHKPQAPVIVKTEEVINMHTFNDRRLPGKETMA
GluK2/GluK5 receptors, sequence (Q13002 32-908): as above
GluK2/GluK5 receptors, sequence (Q16478 15-980): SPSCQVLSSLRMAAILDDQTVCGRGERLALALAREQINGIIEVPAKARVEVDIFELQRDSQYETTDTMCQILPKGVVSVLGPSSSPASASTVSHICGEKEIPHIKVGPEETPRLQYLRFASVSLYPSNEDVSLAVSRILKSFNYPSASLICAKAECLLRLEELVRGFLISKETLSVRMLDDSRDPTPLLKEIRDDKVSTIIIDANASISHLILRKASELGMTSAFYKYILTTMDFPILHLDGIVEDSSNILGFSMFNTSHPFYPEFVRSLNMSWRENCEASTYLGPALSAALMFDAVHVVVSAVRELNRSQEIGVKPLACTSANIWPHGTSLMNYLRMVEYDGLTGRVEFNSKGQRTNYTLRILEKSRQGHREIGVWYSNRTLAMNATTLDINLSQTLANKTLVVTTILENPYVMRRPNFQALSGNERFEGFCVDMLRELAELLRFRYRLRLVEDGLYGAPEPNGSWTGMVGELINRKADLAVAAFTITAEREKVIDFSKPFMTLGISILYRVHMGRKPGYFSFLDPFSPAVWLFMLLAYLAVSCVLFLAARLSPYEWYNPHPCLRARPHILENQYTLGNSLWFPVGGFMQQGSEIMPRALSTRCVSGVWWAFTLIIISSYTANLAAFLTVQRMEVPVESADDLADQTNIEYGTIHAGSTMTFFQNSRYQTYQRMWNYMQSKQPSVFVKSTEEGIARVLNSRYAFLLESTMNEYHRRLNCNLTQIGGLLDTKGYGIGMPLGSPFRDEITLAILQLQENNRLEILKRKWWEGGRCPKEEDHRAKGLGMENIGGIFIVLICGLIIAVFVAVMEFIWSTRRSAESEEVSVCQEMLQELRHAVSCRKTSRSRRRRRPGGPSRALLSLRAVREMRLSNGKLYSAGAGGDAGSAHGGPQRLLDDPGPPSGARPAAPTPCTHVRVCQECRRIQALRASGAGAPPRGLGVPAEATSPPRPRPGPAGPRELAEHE

In the case of Cc1cn(C[C@H](N)C(=O)O)c(=O)n(Cc2ccsc2C(=O)O)c1=O [UBP310], the “change in duration of ictal events” value ([1]; 60 mg/kg intraperitoneal for 3 days, P=0.286) is given as “without a significant change”, the “reduction of number of ictal events” value ([1]; 60 mg/kg intraperitoneal twice a day for 3 days, WT epileptic mice, freely moving) is given as 41% and the “inhibition of heteromeric GluK2/GluK5 receptors” value (GluK2/GluK5 receptors) is given as “inhibits GluK2/GluK5”. For the same molecule, the “inhibition of homomeric GluK2 receptors” value [2] was “not homomeric GluK2 receptors” and the “interference with normal synaptic transmission due to the AMPA receptor” value (AMPA receptor) was “does not interfere”.
